# Source: US11000033B2, “Ketone or oxime compound, and herbicide” (NISSAN CHEMICAL CORPORATION, priority 2014, dated 2021)
# Columns and labels:
# Assay type in all cases: in vivo
# Galium spurium = assay: Test Example 4: herbicidal effect by soil treatment (symbol Q)
# Summary of the method: (§1)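 Seeds were sown in sterilized diluvial soil, covered with about 1.5 cm of soil, and the soil surface was sprayed with a water-diluted emulsion of the compound at a predetermined rate. Plants grew in a greenhouse at 25° C. to 30° C.; effects were scored visually 3 weeks after application.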
# Leptochloa chinensis = assay: Test Example 3: herbicidal effect by foliage application, Wagner pot (symbol D); conditions: application herbicide amount 320 g/ha
# Summary of the method: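 Steps: fill pot with alluvial soil; add water to 0.1–0.5 cm depth; sow weed and rice seed; grow 14 days at 25–30 °C; spray diluted emulsion over the leaves; rate effect after 3 weeks.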
# beet = assay: Test Example 5: effect on crop by foliage application, plastic box (symbol f); conditions: 320 g/ha, 3 weeks after application
# Summary of the method: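 In a plastic box 7 cm deep filled with sterilized diluvial soil, seeds of crops and weeds such as Digitaria ciliaris, Avena fatua and Amaranthus retroflexus are sown in spots and covered with about 1.5 cm of soil before greenhouse growth at 25–30° C.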
# Setaria viridis = assay: Test Example 5: herbicidal effect by foliage application, plastic box (symbol G); conditions: 320 g/ha, 3 weeks after application
# Summary of the method: (§2)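 After sowing into sterilized diluvial soil and growing two weeks under glass at 25° C. to 30° C., seedlings receive a uniform foliar spray of diluted emulsion. Damage is judged visually three weeks on.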
# rice = assay: Test Example 4: effect on crop by soil treatment (symbol b); conditions: for b: directly sowed rice plant, effect on crop grade / b (directly sowed rice plant) effect on crop grade: application herbicide amount 320 g/ha; for b: directly sowed rice plant, effect grade on crop: 320 g/ha
# Summary of the method: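 The test used sterilized diluvial soil. Seed was set down in spots and overlaid with about 1.5 cm of soil before growth in a greenhouse kept at 25° C. to 30° C.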
# Monochoria vaginalis = assay: Test Example 2: herbicidal activity, application during weed generation in submerged conditions (symbol C); conditions: Table 23; application herbicide amount 320 g/ha; grade 0-5 by criteria of Test Example 1
# Summary of the method: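 Submerged alluvial soil (4 cm) sown with mixed seed; greenhouse 25–30° C. 1–2 leaf: diluted emulsion onto water surface, preset dose. Visual score, 3 wk.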
# Avena fatua = assay: Test Example 4: herbicidal effect by soil treatment (symbol I)
# Summary of the method: as §1
# transplanted rice plant = assay: Test Example 1: effect on crop, application before weed generation in submerged conditions (symbol a); conditions: application herbicide amount 320 g/ha
# Summary of the method: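 Alluvial soil pots flooded to 4 cm water, sown with Echinochloa oryzacola, Scirpus juncoides and Monochoria vaginalis, then transplanted with 2.5 leaf stage rice seedlings; pre-emergence application. Greenhouse 25° C. to 30° C.; scored 0–5 by herbicidal ratio 3 weeks after application.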
# Alopecurus myosuroides = assay: Test Example 4: herbicidal effect by soil treatment (symbol J)
# Summary of the method: as §1
# Digitaria ciliaris = assay: Test Example 5: herbicidal effect by foliage application, plastic box (symbol F); conditions: 320 g/ha, 3 weeks after application
# Summary of the method: as §2
# [1] = application herbicide amount 320 g/ha
compound,measurement,setting,value
CON=C(C)CC1CC(O)=C(c2c(C)cc(-c3ccc(Cl)nc3)cc2C)C1=O (mixture of isomers) [6-035],"Q: Galium spurium, herbicidal effect grade",Galium spurium; [1],0 (Herbicidal ratio of 5% or lower (almost no effect))
same,"herbicidal effect on D (Leptochloa chinensis), grade 0-5",Leptochloa chinensis,5 (Herbicidal ratio of 90% or more (almost completely withered))
same,"f: beet, effect on crop grade",beet,0 (Herbicidal ratio of 5% or lower (almost no effect))
same,"G: Setaria viridis, herbicidal effect grade",Setaria viridis,5 (Herbicidal ratio of 90% or more (almost completely withered))
same,"b: directly sowed rice plant, effect on crop grade",rice,5 (Herbicidal ratio of 90% or more (almost completely withered))
same,"Herbicidal effect grade, C: Monochoria vaginalis",Monochoria vaginalis,0 (Herbicidal ratio of 5% or lower (almost no effect))
same,"I: Avena fatua, herbicidal effect grade",Avena fatua; [1],3 (Herbicidal ratio of 40% or higher and lower than 70%)
same,"Effect grade on crop, a: transplanted rice plant",transplanted rice plant,5 (Herbicidal ratio of 90% or more (almost completely withered))
same,"J: Alopecurus myosuroides, herbicidal effect grade",Alopecurus myosuroides; [1],4 (Herbicidal ratio of 70% or higher and lower than 90%)
same,"F: Digitaria ciliaris, herbicidal effect grade",Digitaria ciliaris,5 (Herbicidal ratio of 90% or more (almost completely withered))
CON=C(C)CC1CC(OC(=O)c2ccccc2)=C(c2c(C)cc(C)cc2C)C1=O (centres unmarked) [1-010],Q (Galium spurium) herbicidal effect grade,Galium spurium; [1],2 (Herbicidal ratio of 20% or higher and lower than 40%)
same,"herbicidal effect on D (Leptochloa chinensis), grade 0-5",Leptochloa chinensis,5 (Herbicidal ratio of 90% or more (almost completely withered))
same,"f: beet, effect on crop grade",beet,4 (Herbicidal ratio of 70% or higher and lower than 90%)
same,"G: Setaria viridis, herbicidal effect grade",Setaria viridis,5 (Herbicidal ratio of 90% or more (almost completely withered))
same,b (directly sowed rice plant) effect on crop grade,rice,5 (Herbicidal ratio of 90% or more (almost completely withered))
same,"Herbicidal effect grade, C: Monochoria vaginalis",Monochoria vaginalis,2 (Herbicidal ratio of 20% or higher and lower than 40%)
same,I (Avena fatua) herbicidal effect grade,Avena fatua; [1],5 (Herbicidal ratio of 90% or more (almost completely withered))
same,"Effect grade on crop, a: transplanted rice plant",transplanted rice plant,5 (Herbicidal ratio of 90% or more (almost completely withered))
same,J (Alopecurus myosuroides) herbicidal effect grade,Alopecurus myosuroides; [1],5 (Herbicidal ratio of 90% or more (almost completely withered))
same,"F: Digitaria ciliaris, herbicidal effect grade",Digitaria ciliaris,5 (Herbicidal ratio of 90% or more (almost completely withered))
CON=C(C)CC1CC(OCC(=O)OC)=C(c2c(C)cc(C)cc2C)C1=O (centres unmarked) [1-012],Q (Galium spurium) herbicidal effect grade,Galium spurium; [1],0 (Herbicidal ratio of 5% or lower (almost no effect))
same,"herbicidal effect on D (Leptochloa chinensis), grade 0-5",Leptochloa chinensis,0 (Herbicidal ratio of 5% or lower (almost no effect))
same,"f: beet, effect on crop grade",beet,0 (Herbicidal ratio of 5% or lower (almost no effect))
same,"G: Setaria viridis, herbicidal effect grade",Setaria viridis,0 (Herbicidal ratio of 5% or lower (almost no effect))
same,b (directly sowed rice plant) effect on crop grade,rice,0 (Herbicidal ratio of 5% or lower (almost no effect))
same,"Herbicidal effect grade, C: Monochoria vaginalis",Monochoria vaginalis,0 (Herbicidal ratio of 5% or lower (almost no effect))
same,I (Avena fatua) herbicidal effect grade,Avena fatua; [1],0 (Herbicidal ratio of 5% or lower (almost no effect))
same,"Effect grade on crop, a: transplanted rice plant",transplanted rice plant,0 (Herbicidal ratio of 5% or lower (almost no effect))
same,J (Alopecurus myosuroides) herbicidal effect grade,Alopecurus myosuroides; [1],0 (Herbicidal ratio of 5% or lower (almost no effect))
same,"F: Digitaria ciliaris, herbicidal effect grade",Digitaria ciliaris,0 (Herbicidal ratio of 5% or lower (almost no effect))
CON=C(C)CC1CC(OC(=O)OC)=C(c2c(C)cc(C)cc2C)C1=O (centres unmarked) [1-014],Q (Galium spurium) herbicidal effect grade,Galium spurium; [1],5 (Herbicidal ratio of 90% or more (almost completely withered))
same,"herbicidal effect on D (Leptochloa chinensis), grade 0-5",Leptochloa chinensis,5 (Herbicidal ratio of 90% or more (almost completely withered))
same,"f: beet, effect on crop grade",beet,3 (Herbicidal ratio of 40% or higher and lower than 70%)
same,"G: Setaria viridis, herbicidal effect grade",Setaria viridis,5 (Herbicidal ratio of 90% or more (almost completely withered))
same,b (directly sowed rice plant) effect on crop grade,rice,4 (Herbicidal ratio of 70% or higher and lower than 90%)
same,"Herbicidal effect grade, C: Monochoria vaginalis",Monochoria vaginalis,3 (Herbicidal ratio of 40% or higher and lower than 70%)
same,I (Avena fatua) herbicidal effect grade,Avena fatua; [1],5 (Herbicidal ratio of 90% or more (almost completely withered))
same,"Effect grade on crop, a: transplanted rice plant",transplanted rice plant,5 (Herbicidal ratio of 90% or more (almost completely withered))
same,J (Alopecurus myosuroides) herbicidal effect grade,Alopecurus myosuroides; [1],5 (Herbicidal ratio of 90% or more (almost completely withered))
same,"F: Digitaria ciliaris, herbicidal effect grade",Digitaria ciliaris,5 (Herbicidal ratio of 90% or more (almost completely withered))
CON=C(C)CC1CC(OS(=O)(=O)C2CC2)=C(c2c(C)cc(C)cc2C)C1=O (centres unmarked) [1-143],"Q: Galium spurium, herbicidal effect grade",Galium spurium; 320 g/ha,0 (Herbicidal ratio of 5% or lower (almost no effect))
same,"herbicidal effect on D (Leptochloa chinensis), grade 0-5",Leptochloa chinensis,4 (Herbicidal ratio of 70% or higher and lower than 90%)
same,"f: beet, effect on crop (criteria 0-5)",beet,0 (Herbicidal ratio of 5% or lower (almost no effect))
same,"G: Setaria viridis, herbicidal effect (criteria 0-5)",Setaria viridis,5 (Herbicidal ratio of 90% or more (almost completely withered))
same,"b: directly sowed rice plant, effect grade on crop",rice,0 (Herbicidal ratio of 5% or lower (almost no effect))
same,"Herbicidal effect grade, C: Monochoria vaginalis",Monochoria vaginalis,3 (Herbicidal ratio of 40% or higher and lower than 70%)
same,"I: Avena fatua, herbicidal effect grade",Avena fatua; 320 g/ha,2 (Herbicidal ratio of 20% or higher and lower than 40%)
same,"Effect grade on crop, a: transplanted rice plant",transplanted rice plant,5 (Herbicidal ratio of 90% or more (almost completely withered))
same,"J: Alopecurus myosuroides, herbicidal effect grade",Alopecurus myosuroides; 320 g/ha,2 (Herbicidal ratio of 20% or higher and lower than 40%)
same,"F: Digitaria ciliaris, herbicidal effect (criteria 0-5)",Digitaria ciliaris,5 (Herbicidal ratio of 90% or more (almost completely withered))
CC(=O)C(C(C)=O)C1CC(O)=C(c2c(C)cc(C)cc2C)C1=O (centres unmarked) [2-002],"Q: Galium spurium, herbicidal effect grade",Galium spurium; 320 g/ha,0 (Herbicidal ratio of 5% or lower (almost no effect))
same,"herbicidal effect on D (Leptochloa chinensis), grade 0-5",Leptochloa chinensis,0 (Herbicidal ratio of 5% or lower (almost no effect))
same,"f: beet, effect on crop grade",beet,0 (Herbicidal ratio of 5% or lower (almost no effect))
same,"G: Setaria viridis, herbicidal effect grade",Setaria viridis,4 (Herbicidal ratio of 70% or higher and lower than 90%)
same,"b: directly sowed rice plant, effect grade on crop",rice,1 (Herbicidal ratio of 5% or higher and lower than 20%)
same,"Herbicidal effect grade, C: Monochoria vaginalis",Monochoria vaginalis,0 (Herbicidal ratio of 5% or lower (almost no effect))
same,"I: Avena fatua, herbicidal effect grade",Avena fatua; 320 g/ha,0 (Herbicidal ratio of 5% or lower (almost no effect))
same,"Effect grade on crop, a: transplanted rice plant",transplanted rice plant,0 (Herbicidal ratio of 5% or lower (almost no effect))
same,"J: Alopecurus myosuroides, herbicidal effect grade",Alopecurus myosuroides; 320 g/ha,0 (Herbicidal ratio of 5% or lower (almost no effect))
same,"F: Digitaria ciliaris, herbicidal effect grade",Digitaria ciliaris,4 (Herbicidal ratio of 70% or higher and lower than 90%)
Cc1cc(C)c(C2=C(O)CC(CC(=O)CC3CC3)C2=O)c(C)c1 (centres unmarked) [2-026],"Q: Galium spurium, herbicidal effect grade",Galium spurium; [1],0 (Herbicidal ratio of 5% or lower (almost no effect))
same,"herbicidal effect on D (Leptochloa chinensis), grade 0-5",Leptochloa chinensis,4 (Herbicidal ratio of 70% or higher and lower than 90%)
same,"f: beet, effect on crop grade",beet,0 (Herbicidal ratio of 5% or lower (almost no effect))
same,"G: Setaria viridis, herbicidal effect grade",Setaria viridis,5 (Herbicidal ratio of 90% or more (almost completely withered))
same,"b: directly sowed rice plant, effect on crop grade",rice,5 (Herbicidal ratio of 90% or more (almost completely withered))
same,"Herbicidal effect grade, C: Monochoria vaginalis",Monochoria vaginalis,0 (Herbicidal ratio of 5% or lower (almost no effect))
same,"I: Avena fatua, herbicidal effect grade",Avena fatua; [1],0 (Herbicidal ratio of 5% or lower (almost no effect))
same,"Effect grade on crop, a: transplanted rice plant",transplanted rice plant,4 (Herbicidal ratio of 70% or higher and lower than 90%)
same,"J: Alopecurus myosuroides, herbicidal effect grade",Alopecurus myosuroides; [1],3 (Herbicidal ratio of 40% or higher and lower than 70%)
same,"F: Digitaria ciliaris, herbicidal effect grade",Digitaria ciliaris,4 (Herbicidal ratio of 70% or higher and lower than 90%)
CCc1cc(Br)cc(C)c1C1=C(O)CC(CC(C)=NOC)C1=O (centres unmarked) [6-001],"Q: Galium spurium, herbicidal effect grade",Galium spurium; [1],0 (Herbicidal ratio of 5% or lower (almost no effect))
same,"herbicidal effect on D (Leptochloa chinensis), grade 0-5",Leptochloa chinensis,5 (Herbicidal ratio of 90% or more (almost completely withered))
same,"f: beet, effect on crop grade",beet,0 (Herbicidal ratio of 5% or lower (almost no effect))
same,"G: Setaria viridis, herbicidal effect grade",Setaria viridis,5 (Herbicidal ratio of 90% or more (almost completely withered))
same,"b: directly sowed rice plant, effect on crop grade",rice,5 (Herbicidal ratio of 90% or more (almost completely withered))
same,"Herbicidal effect grade, C: Monochoria vaginalis",Monochoria vaginalis,0 (Herbicidal ratio of 5% or lower (almost no effect))
same,"I: Avena fatua, herbicidal effect grade",Avena fatua; [1],5 (Herbicidal ratio of 90% or more (almost completely withered))
same,"Effect grade on crop, a: transplanted rice plant",transplanted rice plant,5 (Herbicidal ratio of 90% or more (almost completely withered))
same,"J: Alopecurus myosuroides, herbicidal effect grade",Alopecurus myosuroides; [1],5 (Herbicidal ratio of 90% or more (almost completely withered))
same,"F: Digitaria ciliaris, herbicidal effect grade",Digitaria ciliaris,5 (Herbicidal ratio of 90% or more (almost completely withered))
